Measured values published in patent publication US8629100B2, “Method of inhibiting clostridium difficile by administration of oritavancin” (The Medicines Company, priority 2007, dated 2014).
In brackets after ≈: the same amount, converted by molar mass.

Columns and labels:
Format in all cases: cell-based
[1] = tested on: C. difficile vegetative cultures and spores; test: Spiral gradient endpoint analysis MIC; details: data not shown
Description: C. difficile PCR ribotypes 001, 106 and 027 were inoculated onto Columbia blood agar and incubated anaerobically (37° C.) for 10 d. Growth was harvested into sterile saline and alcohol shocked in an equal volume of 100% ethanol for 1 h. Alcohol-shocked spore suspensions were mixed by vortexing and sonicated for 5 minutes at room temperature. C. difficile phase-bright (non-germinated) spores were separated from phase-dark (germinated) spores and cellular debris by density gradient centrifugation (4000 rpm 15 minutes) following layering onto 50% (v/v in phosphate buffered saline) Urografin 370 (Schering, Germany). The density gradient centrifugation step was performed twice. Pellets of purified spores were re-suspended in sterile saline (1 mL per 10 Columbia blood agar plates harvested). Percentage phase-bright spores, phase-dark spores and vegetative cells were recorded using phase-contrast microscopy (×100 magnification).
A spiral plater (WASP2, Don Whitley Scientific, UK) was used to apply a logarithmic antibiotic gradient onto the surface of pre-dried (37° C. 20 minutes) Brazier's agar (pH 7). Agar with logarithmic antimicrobial gradients applied to their surface remained at room temperature for 1 h to allow the antimicrobial agent to adsorb into the agar. C. difficile vegetative cultures and spores (˜10^7 cfu/mL) were inoculated onto the agar surface (FIG. 1) with a sterile cotton swab and incubated anaerobically (37° C., 24 h). D-values were measured (in mm) and converted to MICs (Paton, J. H.1990. Int J Exp Clin Chemother. 9, 31-38).

[2] = tested on: genotypically distinct C. difficile (n = 33); test: Broth macrodilution MIC; details: Clostridioides difficile, BM, broth macrodilution
[3] = tested on: C. difficile spores (PCR ribotypes 001, 106 and 027); test: Viability (recovery) of spores after antibiotic exposure, cellulose acetate filtration (Examples 3A, 3B)
Description: The experiments were in general performed by mixing C. difficile spores with an antibiotic, filtering the solution through cellulose acetate filters to collect the spores, applying the spore-containing filters to nutrient agar, and determining the number of spores remaining on the filters after a selected period of time.
Therefore, the initial experiment included dilution of antimicrobial-containing spore suspensions prior to filtration and washing. Reaction volumes were 1 mL for all antimicrobial/control solutions.
1 mL of control (de-ionised water+/−Tween-80) and test (antimicrobial containing) solutions were inoculated with 10 μL C. difficile spores (3 strains; PCR ribotypes 001, 106 and 027). Spore suspensions (time=1 min or 30 min) were transferred to filtration cupules and the appropriate volume of diluent (sterile de-ionised water+/−Tween-80) was added to achieve the dilution factors noted above. Samples were filtered onto cellulose acetate filters and washed with a further 50 mL of the appropriate diluent. Filters were transferred aseptically to Braziers CCEY agar containing 5 mg/L lysozyme and 2% lysed horse blood. This procedure was completed in duplicate. The culture media were incubated in an anaerobic atmosphere at 37° C. for 48 h and the numbers of C. difficile colonies were recorded.
Diluent was first added to filtration cupules. 1 mL reactions were then added to the appropriate diluent (1 min and 30 min after reaction formation) and filtered onto cellulose acetate filters. The filters were washed with 50 mL of the appropriate diluent. The filters were then transferred aseptically to Braziers CCEY agar containing 5 mg/L lysozyme and 2% lysed horse blood. This procedure was completed in duplicate. Culture media were incubated in an anaerobic atmosphere at 37° C. for 48 h and the numbers of C. difficile colonies recorded

[4] = tested on: genotypically distinct C. difficile (n = 33); test: Agar incorporation MIC; details: for MIC90 / MIC range / MIC: AI; for MIC: read-out: GEO MIC
Text: Thirty-three genotypically distinct (by PCR ribotyping) C. difficile isolates were selected from a library of strains at the Leeds General Infirmary (Leeds, UK). Representative isolates of epidemic C. difficile PCR ribotypes 001, 106 and 027 were included in the panel. Control isolates of Staphylococcus aureus ATCC 29213, Enterococcus faecalis ATCC 29212 and Bacteroides fragilis ATCC 25285 were included in all MIC determinations to ensure procedure accuracy.
Agar incorporation MICs were determined based on the method of Freeman and Wilcox (J Antimicrob Chemother 2001; 47: 244-6). Briefly, bacteria were cultured in Schaedler's anaerobic broth (Oxoid, Basingstoke, UK) at 37° C. for 24 h in an anaerobic cabinet (Don Whitley Scientific, Shipley). […] Oritavancin was prepared in 0.002% P80. All antimicrobial solutions were sterilized by filtration through 0.22 um syringe filters. […] Wilkins Chalgren agar (Oxoid) incorporating doubling dilutions of antimicrobial agents (0.03-16 mg/L) was prepared with and without 0.002% P80 and with and without 2% lysed horse blood (E&O Labs, Bonneybridge, UK). All media and diluents were pre-reduced overnight in the anaerobic cabinet. Bacterial cultures were diluted in sterile saline and inoculated onto the surface of agar incorporation agar plates using a multipoint inoculator (˜10^4 cfu). Agar incorporation plates were incubated anaerobically for 48 h. MIC endpoints were read as the lowest concentration of antimicrobial agent where there is no apparent growth (disregarding a visible haze of growth or a single colony).

[5] = tested on: C. difficile PCR ribotype 027 spores; test: Phase-contrast microscopy of spore germination/outgrowth; details: 10 mg/L for 2 h, washed 3x in PBS
Description: C. difficile spores were also exposed to 10 mg/L antimicrobial for 2 h, washed 3× in sterile PBS, re-suspended and inoculated into Brazier's broth medium (pH 7). Samples were removed at 2, 4, 6, 24, 32 and 48 h. Slides were viewed under phase-contrast microscopy and percentages of phase-bright spores, phase-dark spores and vegetative cells were recorded (FIG. 4).
Statistical analyses were performed by transforming percentage data using an Arcsin Transformation and analysed using a Wilcoxon signed rank test. P<0.05 was considered statistically significant. Supra-MIC concentrations of all antimicrobials prevented outgrowth but not germination of C. difficile spores.

## Cc1ncc([N+](=O)[O-])n1CCO [metronidazole]
[1]
  MICs for C. difficile vegetative cells versus spores: did not differ substantially
[2]
  MIC90: 2 µg/mL (≈ 11.7 µM)
[2]; read-out: GEO MIC
  MIC: 0.56 µg/mL (≈ 3.27 µM)
[3]; Example 3A: diluent added after reaction solutions, 1 min and 30 min exposure
  Recovery of C. difficile spores: 90-110 % of controls
[3]; Example 3B: diluent added to cupules before reaction solutions, 1 min and 30 min
  Recovery of C. difficile spores: 95-110 % of controls
[4]; P80 no LHB
  MIC90: 2 µg/mL (≈ 11.7 µM)
  MIC range: 0.25 to 2 µg/mL
[4]; no P80 no LHB
  MIC90: 2 µg/mL (≈ 11.7 µM)
  MIC range: 0.25 to 4 µg/mL
[4]; no P80 with LHB
  MIC90: 2 µg/mL (≈ 11.7 µM)
  MIC range: 0.5 to 4 µg/mL
[4]; Clostridioides difficile, P80 no LHB
  MIC: 0.55 µg/mL (≈ 3.21 µM)
[4]; Clostridioides difficile, P80 with LHB
  MIC: 0.55 µg/mL (≈ 3.21 µM)
[4]; Clostridioides difficile, P80 with LHB, read-out: MIC90
  MIC90: 2 µg/mL (≈ 11.7 µM)
[4]; Clostridioides difficile, no P80 no LHB
  MIC: 0.53 µg/mL (≈ 3.1 µM)
[4]; Clostridioides difficile, no P80 with LHB
  MIC: 0.69 µg/mL (≈ 4.03 µM)
[4]; all agar conditions
  Agar incorporation geometric mean MICs lower than oritavancin MICs: 2- to 5 fold
  Agar incorporation geometric mean MICs lower than vancomycin MICs: 2- to 3 fold
[5]
  Outgrowth of C. difficile spores prior-exposed to antimicrobial: not observed
